Experimental findings from ChEMBL document CHEMBL1201862, “PubChem BioAssay data set” (2004) are described below.

What all share (test): NCI-60 cell line screen, 48 h
Test [1] has as its system A498.
Test [2] concerns A549.
In test [3] the test system is ACHN.
In test [4] the test system is CAKI-1.
The subject of test [5] is CCRF-CEM.
Test [6] concerns COLO 205.
Test [7] deals with HCC 2998.
Test [8] deals with HCT-15.
In test [9] the test system is KM12.
Test [10] has as its system M14.
The test system of test [11] is MDA-N.
Test [12] relates to NCI/ADR-RES.
The test system of test [13] is RXF 393.
The test system of test [14] is SF-295.
Test [15] relates to SF-539.
The subject of test [16] is SK-MEL-28.
Test [17] concerns SK-MEL-2.
Test [18] relates to SN12C.
Test [19] has as its system SR.
For test [20], the system named is SK-OV-3.

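96-well plates; 48 h exposure; 5 concentrations. Endpoints by linear interpolation between flanking doses. Not reached: highest tested concentration assigned. GI50 = concentration required for 50% inhibition of growth.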 Active and inactive are the calls of the source. Cut-off read from the data, not from the text of the source: active = GI50 up to about 1.1 µM and inactive = higher.

As to `Cc1cc(C)c2c(c1)CC1(Cc3c(C)cc(C)cc3C1=O)C2=O` (centres undefined), the GI50 in test [1] was > 100 µM (inactive); in test [2], 98.6 µM (inactive); in test [3], > 100 µM (inactive); in [4], > 100 µM (inactive); in [5], > 100 µM (inactive); in test [6], > 100 µM (inactive). Besides, the GI50 in [7] was > 100 µM (inactive); in [8], greater than 100 µM; in [9], > 100 µM (inactive); in test [10], > 100 µM (inactive); in [11], > 100 µM (inactive); in test [12] it was > 100 µM (inactive). Further, the GI50 was > 100 µM (inactive) in test [13]; > 100 µM (inactive) in test [14]; 35.8 µM (inactive) in test [15]; > 100 µM (inactive) in test [16]; > 100 µM (inactive) in test [17]; > 100 µM (inactive) in [18]. Besides, the GI50 in test [19] is > 100 µM (inactive).

On to `CCN(CC)CCn1c(=O)c2cccnc2n2c3c(=O)n(C)c(=O)n(C)c3nc12`, for which the GI50 is 59.4 µM (inactive) in test [2]; 34.8 µM (inactive) in test [3]; 67.9 µM (inactive) in [4]; 64.6 µM (inactive) in [5]; 70.3 µM (inactive) in test [6]; 72.4 µM (inactive) in test [7]. The GI50 in [8] was 11.6 µM; in test [9], > 100 µM (inactive); in test [10], > 100 µM (inactive); in [11], > 100 µM (inactive); in test [12] it was > 100 µM (inactive); in test [13], > 100 µM (inactive). In addition, the GI50 in test [14] is > 100 µM (inactive); in [15] it was 85.1 µM (inactive); in test [16] it was > 100 µM (inactive); in test [17], > 100 µM (inactive); in [20] it was > 100 µM (inactive); in [18], > 100 µM (inactive). Besides, in test [19], the GI50 was 38.5 µM (inactive).

With `COC(=O)CNC(=O)CNC(=O)CSc1nnc(COc2ccc(Cl)cc2)n1-c1ccccc1`, the GI50 in [1] was > 100 µM (inactive); in [2], > 100 µM (inactive); in test [3], > 100 µM (inactive); in test [4], 17.6 µM (inactive); in [5], 25.3 µM (inactive); in test [6] it was > 100 µM (inactive). Further, the GI50 in test [7] is 42 µM (inactive); in test [8], greater than 100 µM; in test [9] it was 21.3 µM (inactive); in [10] it was 37.4 µM (inactive); in test [11] it was 23.7 µM (inactive); in test [12], > 100 µM (inactive). Moreover, the GI50 is 15.4 µM (inactive) in test [13]; > 100 µM (inactive) in [14]; > 100 µM (inactive) in test [15]; 25.1 µM (inactive) in test [16]; 19.4 µM (inactive) in test [17]; > 100 µM (inactive) in test [18]. Further, the GI50 in test [19] was 29 µM (inactive).

Regarding `NC(CC(=O)O)(Cc1ccccc1)C(=O)O` (centres undefined), the GI50 in test [1], in test [2], in [3], in test [4], in test [5] and in [6] was > 100 µM (inactive) throughout. For the same molecule, the GI50 was greater than 100 µM in [8]; > 100 µM (inactive) in test [9]; > 100 µM (inactive) in [10]; > 100 µM (inactive) in test [11]; > 100 µM (inactive) in [12]; > 100 µM (inactive) in test [13]. The GI50 in test [14], in test [15], in test [16], in test [17], in test [20] and in [18] was > 100 µM (inactive) each time. Besides, the GI50 in test [19] was > 100 µM (inactive).

For `CN(C)CCNC(=O)c1cc(NC(=O)c2cc(NC(=O)CC/C=C3/[C@@H]4CC[C@H]3N=N4)cn2C)cn1C`, the GI50 in [1], in test [2], in test [3], in test [4], in test [5] and in [6] was > 100 µM (inactive) each time. Further, the GI50 in test [7] is > 100 µM (inactive); in test [8] it was greater than 100 µM; in [9] it was > 100 µM (inactive); in [10], > 100 µM (inactive); in test [11], > 100 µM (inactive); in test [12] it was > 100 µM (inactive). Moreover, the GI50 in [13], in [14], in test [15], in test [16], in test [17] and in [18] was > 100 µM (inactive) in each case. For the same molecule, in test [19], the GI50 is > 100 µM (inactive).

In the case of `CC(=O)O[C@H]1CC[C@H]2[C@@H]3CCC4=CC(=O)C=C[C@]4(O)[C@H]3CC[C@]12C`, the GI50 was 42.8 µM (inactive) in test [1]; > 42 µM (inactive) in [2]; > 84.5 µM (inactive) in test [3]; > 55.1 µM (inactive) in test [4]; 13.5 µM (inactive) in [5]; 22.4 µM (inactive) in test [6]. The GI50 was 45.1 µM (inactive) in [7]; 29.6 µM in test [8]; 14.9 µM (inactive) in test [9]; 32.1 µM (inactive) in test [10]; 29.9 µM (inactive) in test [11]; 12 µM (inactive) in [12]. Also, the GI50 is 20.6 µM (inactive) in test [13]; 16.6 µM (inactive) in test [14]; 31.3 µM (inactive) in test [15]; 28.2 µM (inactive) in [16]; 22.1 µM (inactive) in [17]; > 71.9 µM (inactive) in test [18]. For the same molecule, in test [19], the GI50 was 0.738 µM (active).

For `CCSC1=CC(=O)c2nc3ccccc3c3ccnc1c23`, the GI50 in test [2] was 7.8 µM (inactive); in test [3], 3.65 µM (inactive); in test [4] it was 3.82 µM (inactive); in [5] it was 2.44 µM (inactive); in test [6], 8.15 µM (inactive); in test [7], 8.89 µM (inactive). Besides, the GI50 in [8] was 2.31 µM; in test [9], 3.9 µM (inactive); in test [10] it was 2.38 µM (inactive); in test [11] it was 1.95 µM (inactive); in test [12] it was 2.62 µM (inactive); in [13], 4.5 µM (inactive). Also, the GI50 was 13.8 µM (inactive) in [14]; 5.43 µM (inactive) in test [15]; 10.1 µM (inactive) in test [16]; 1.91 µM (inactive) in test [17]; 49 µM (inactive) in test [20]; 2.64 µM (inactive) in test [18]. The GI50 in test [19] is 2.7 µM (inactive).

For the molecule `Cc1cn(CCCCOC(=O)NC(CCCNC(N)=O)C(=O)O)c(=O)[nH]c1=O` (centres undefined), the GI50 in test [2], in test [3], in test [4], in test [5], in test [6] and in [7] was > 100 µM (inactive) throughout. Also, the GI50 in test [8] was greater than 100 µM; in [9] it was > 100 µM (inactive); in [10] it was > 100 µM (inactive); in [11], > 100 µM (inactive); in test [12] it was > 100 µM (inactive); in test [13] it was > 100 µM (inactive). Besides, the GI50 in test [14], in test [15], in test [16], in [17], in [20] and in [18] was > 100 µM (inactive) in each case. In test [19], the GI50 is > 100 µM (inactive).

On to `COc1ccc2c(c1)C1=NCCN(CCN(C)C)c3ccc([N+](=O)[O-])c(c31)N2`, for which the GI50 in test [1] is 1.59 µM (inactive); in test [2] it was 0.417 µM (active); in [3], 0.191 µM (active); in test [4] it was 0.56 µM (active); in [5], 0.258 µM (active); in test [8], 0.395 µM. For the same molecule, the GI50 is 0.374 µM (active) in test [9]; 0.489 µM (active) in [10]; 0.542 µM (active) in [11]; 0.957 µM (active) in [12]; 0.757 µM (active) in test [13]; 0.35 µM (active) in test [14]. Moreover, the GI50 in test [15] is 0.432 µM (active); in [16] it was 1.28 µM (inactive); in test [17] it was 1.45 µM (inactive); in [20], 0.259 µM (active); in [18], 0.568 µM (active); in test [19] it was 0.404 µM (active).

Consider `O=C(/C=C/c1ccc(O)c(-c2cc(C(=O)/C=C/c3ccc(O)cc3)c(O)cc2O)c1)c1ccc(O)cc1O` [RHUSCHALCONE VI], for which the GI50 in test [1] is > 50 µM (inactive); in test [2], > 50 µM (inactive); in test [3], > 50 µM (inactive); in test [4] it was > 50 µM (inactive); in test [5], 10.1 µM (inactive); in test [6], 10.5 µM (inactive). For the same molecule, the GI50 in test [8] is greater than 50 µM; in test [9], 13.3 µM (inactive); in test [10], 49.1 µM (inactive); in test [11], 18.3 µM (inactive); in [12], > 50 µM (inactive); in [13], 17.2 µM (inactive). The GI50 in test [14] was 37.5 µM (inactive); in test [15] it was 11.7 µM (inactive); in [16] it was 10.4 µM (inactive); in test [17], 20.7 µM (inactive); in test [20], 16.1 µM (inactive); in test [18], 20.4 µM (inactive). Further, the GI50 in [19] is 11.4 µM (inactive).
